Where two headings read alike, the source gives them in different places.
Columns and labels:
[1] = BDP as a solution in HFA 134a (formulations of EP 0553298), reported in literature; cited from earlier work
[2] = Aerodynamic particle size distribution by Andersen Cascade Impactor (ACI), ten cumulative actuations, drug on plates by HPLC; type: physicochemical
Method: The aerosol compositions of the invention described below were prepared by the following method. The required components of a composition were added into a can in the following order: drug, non-volatile additive, absolute ethanol. After crimping of the valve on to the can, the propellant was added through the valve. The weight gain of the can after each component was added was recorded to allow the percentage, by weight, of each component in the formulation to be calculated. The aerodynamic particle size distribution of each formulation was characterized using a Multistage Cascade Impactor according to the procedure described in the European Pharmacopoeia 2nd edition, 1995, part V.5.9.1. pages 15-17. In this specific case an Andersen Cascade Impactor (ACI) was used. Results represented were obtained from ten cumulative actuations or a formulation. Deposition of the drug on each ACI plate was determined by high pressure liquid chromatography. The mass median aerodynamic diameter (MMAD) and geometric standard deviation (GSD) were calculated from plots of the cumulative percentage undersize of drug collected on each ACI plate (probit scale), against the upper cut off diameter for each respective ACI plate (log10 scale). The fine particle dose of each formulation was determined from the mass of drug collected on Stages 2 through to Filter (<5.8 μm) divided by the number of actuations per experiment.

[3] = BDP 10 mg/10 ml, ethanol 7.9%, HFA 134a, actuator orifice 0.25 mm
[4] = BDP 10 mg/10 ml, ethanol 12.9-13.0%, HFA 134a, actuator orifice 0.25 mm
[5] = BDP 10 mg/10 ml, ethanol 12.9 ± 0.1% (w/w), HFA 134a, propylene glycol 0.0% (w/w), actuator orifice 0.42 mm
[6] = BDP 10 mg/10 ml, ethanol 12.9 ± 0.1% (w/w), HFA 134a, propylene glycol 1.1% (w/w), actuator orifice 0.42 mm
[7] = BDP 10 mg/10 ml, ethanol 12.9 ± 0.1% (w/w), HFA 134a, propylene glycol 3.2% (w/w), actuator orifice 0.42 mm
[8] = BDP 10 mg/10 ml, ethanol 12.9 ± 0.1% (w/w), HFA 134a, propylene glycol 6.8% (w/w), actuator orifice 0.42 mm
[9] = BDP 10 mg/10 ml, ethanol 13.6%, H2O 0.5%, HFA 134a, actuator orifice 0.33 mm
[10] = BDP 10 mg/10 ml, ethanol 13.7%, H2O 0.1%, HFA 134a, actuator orifice 0.33 mm
[11] = BDP 20 mg/10 ml, ethanol 7.9%, HFA 134a, actuator orifice 0.25 mm
[12] = BDP 20 mg/10 ml, ethanol 13.0%, HFA 134a, actuator orifice 0.25 mm
[13] = BDP 50 mg/10 ml, ethanol 14.9%, H2O 0.1%, HFA 134a, actuator orifice 0.33 mm
[14] = BDP 50 mg/10 ml, ethanol 14.9%, H2O 0.5%, HFA 134a, actuator orifice 0.33 mm
[15] = BDP 50 mg/10 ml, ethanol 14.9 ± 0.1% (w/w), HFA 134a, PEG 0.0% (w/w), actuator orifice 0.33 mm
[16] = BDP 50 mg/10 ml, ethanol 14.9 ± 0.1% (w/w), HFA 134a, PEG 400 1.1% (w/w), actuator orifice 0.33 mm
[17] = BDP 50 mg/10 ml, ethanol 14.9 ± 0.1% (w/w), HFA 134a, PEG 8000 1.0% (w/w), actuator orifice 0.33 mm
[18] = BDP 50 mg/10 ml, ethanol 15.0 ± 0.2% (w/w), HFA 134a, glycerol 0.0% (w/w), actuator orifice 0.25 mm
[19] = BDP 50 mg/10 ml, ethanol 15.0 ± 0.2% (w/w), HFA 134a, glycerol 0.0% (w/w), actuator orifice 0.33 mm
[20] = BDP 50 mg/10 ml, ethanol 15.0 ± 0.2% (w/w), HFA 134a, glycerol 1.0% (w/w), actuator orifice 0.25 mm
[21] = BDP 50 mg/10 ml, ethanol 15.0 ± 0.2% (w/w), HFA 134a, glycerol 1.0% (w/w), actuator orifice 0.33 mm
[22] = BDP 50 mg/10 ml, ethanol 15.0 ± 0.2% (w/w), HFA 134a, glycerol 1.3% (w/w), actuator orifice 0.25 mm
[23] = BDP 50 mg/10 ml, ethanol 15.0 ± 0.2% (w/w), HFA 134a, glycerol 1.3% (w/w), actuator orifice 0.33 mm
[24] = BDP 50 mg/10 ml, ethanol 15.0 ± 0.2% (w/w), HFA 134a, glycerol 1.6% (w/w), actuator orifice 0.25 mm
[25] = BDP 50 mg/10 ml, ethanol 15.0 ± 0.2% (w/w), HFA 134a, glycerol 1.6% (w/w), actuator orifice 0.33 mm
[26] = BDP 50 mg/10 ml, ethanol 15.0 ± 0.2% (w/w), HFA 227 fill to 12 ml, 0% (w/w) glycerol, actuator orifice 0.33 mm
[27] = BDP 50 mg/10 ml, ethanol 15.0 ± 0.2% (w/w), HFA 227 fill to 12 ml, 1.42% (w/w) glycerol, actuator orifice 0.33 mm
[28] = BDP 50 mg/10 ml, ethanol 15.2 ± 0.4% (w/w), HFA 134a, propylene glycol 0.0% (w/w), actuator orifice 0.42 mm
[29] = BDP 50 mg/10 ml, ethanol 15.2 ± 0.4% (w/w), HFA 134a, propylene glycol 0.7% (w/w), actuator orifice 0.42 mm
[30] = BDP 50 mg/10 ml, ethanol 15.2 ± 0.4% (w/w), HFA 134a, propylene glycol 2.8% (w/w), actuator orifice 0.42 mm
[31] = BDP 50 mg/10 ml, ethanol 15.2 ± 0.4% (w/w), HFA 134a, propylene glycol 6.3% (w/w), actuator orifice 0.42 mm
[32] = combination BDP 50 mg/10 ml + Salbutamol base 20 mg/10 ml, ethanol 15.4 ± 0.2% (w/w), HFA 134a, glycerol 0%, oleic acid 0%, actuator exit orifice 0.33 mm
[33] = combination BDP 50 mg/10 ml + Salbutamol base 20 mg/10 ml, ethanol 15.4 ± 0.2% (w/w), HFA 134a, glycerol 0%, oleic acid 0.3%, actuator exit orifice 0.33 mm
[34] = combination BDP 50 mg/10 ml + Salbutamol base 20 mg/10 ml, ethanol 15.4 ± 0.2% (w/w), HFA 134a, glycerol 0%, oleic acid 1.3%, actuator exit orifice 0.30 mm
[35] = combination BDP 50 mg/10 ml + Salbutamol base 20 mg/10 ml, ethanol 15.4 ± 0.2% (w/w), HFA 134a, glycerol 1.2%, oleic acid 0.3%, actuator exit orifice 0.30 mm

CCC(=O)OCC(=O)[C@@]1(OC(=O)CC)[C@@H](C)C[C@H]2[C@@H]3CCC4=CC(=O)C=C[C@]4(C)[C@@]3(Cl)[C@@H](O)C[C@@]21C [BDP, beclomethasone dipropionate]
MMAD [1]: 1.1 μm | Fine particle dose [2, 3]: 31.1 µg | MMAD ± GSD [2, 3]: 0.8 ± 1.8 | Mean emitted dose [2, 3]: 44.7 µg | Fine particle dose [2, 4]: 24.5 µg | MMAD ± GSD [2, 4]: 0.9 ± 2.0 | Mean emitted dose [2, 4]: 45.1 µg | Fine particle dose [2, 5]: 10.3 µg | MMAD ± GSD [2, 5]: 1.1 ± 2.3 μm | Mean emitted dose [2, 5]: 41.8 µg | Fine particle dose [2, 6]: 9.3 µg | MMAD ± GSD [2, 6]: 1.6 ± 3.4 μm | Mean emitted dose [2, 6]: 44.0 µg | Fine particle dose [2, 7]: 7.3 µg | MMAD ± GSD [2, 7]: 2.9 ± 4.1 μm | Mean emitted dose [2, 7]: 43.6 µg | Fine particle dose [2, 8]: 4.9 µg | MMAD ± GSD [2, 8]: 4.6 ± 3.9 μm | Mean emitted dose [2, 8]: 44.9 µg | Fine particle dose [2, 9]: 12.7 µg | MMAD ± GSD [2, 9]: 1.0 ± 2.1 μm | Mean emitted dose [2, 9]: 42.9 µg | Fine particle dose [2, 10]: 14.9 µg | MMAD ± GSD [2, 10]: 1.0 ± 2.2 μm | Mean emitted dose [2, 10]: 43.2 µg | Fine particle dose [2, 11]: 63.1 µg | MMAD ± GSD [2, 11]: 1.0 ± 1.8 | Mean emitted dose [2, 11]: 84.8 µg | Fine particle dose [2, 12]: 46.2 µg | MMAD ± GSD [2, 12]: 1.0 ± 1.9 | Mean emitted dose [2, 12]: 87.6 µg | Fine particle dose [2, 13]: 67.4 µg | MMAD ± GSD [2, 13]: 1.8 ± 2.2 μm | Mean emitted dose [2, 13]: 222.1 µg | Fine particle dose [2, 14]: 60.2 µg | MMAD ± GSD [2, 14]: 1.7 ± 2.2 μm | Mean emitted dose [2, 14]: 215.1 µg | Fine particle dose [2, 15]: 67.4 µg | MMAD ± GSD [2, 15]: 1.8 ± 2.2 μm | Mean emitted dose [2, 15]: 222.1 µg | Fine particle dose [2, 16]: 55.6 µg | MMAD ± GSD [2, 16]: 2.5 ± 2.2 μm | Mean emitted dose [2, 16]: 218.9 µg | Fine particle dose [2, 17]: 55.6 µg | MMAD ± GSD [2, 17]: 2.5 ± 2.2 μm | Mean emitted dose [2, 17]: 215.0 µg | Fine particle dose [2, 18]: 105.9 µg | MMAD ± GSD [2, 18]: 1.4 ± 1.9 μm | Mean emitted dose [2, 18]: 205.8 µg | Fine particle dose [2, 19]: 67.4 µg | MMAD ± GSD [2, 19]: 1.8 ± 2.2 μm | Mean emitted dose [2, 19]: 222.1 µg | Fine particle dose [2, 20]: 94.4 µg | MMAD ± GSD [2, 20]: 2.4 ± 2.0 μm | Mean emitted dose [2, 20]: 218.3 µg | Fine particle dose [2, 21]: 55.9 µg | MMAD ± GSD [2, 21]: 2.8 ± 2.2 μm | Mean emitted dose [2, 21]: 227.9 µg | Fine particle dose [2, 22]: 100.3 µg | MMAD ± GSD [2, 22]: 2.6 ± 2.0 μm | Mean emitted dose [2, 22]: 220.8 µg | Fine particle dose [2, 23]: 54.3 µg | MMAD ± GSD [2, 23]: 3.1 ± 2.3 μm | Mean emitted dose [2, 23]: 228.4 µg | Fine particle dose [2, 24]: 96.6 µg | MMAD ± GSD [2, 24]: 2.7 ± 2.0 μm | Mean emitted dose [2, 24]: 228.0 µg | Fine particle dose [2, 25]: 50.9 µg | MMAD ± GSD [2, 25]: 3.1 ± 2.3 μm | Mean emitted dose [2, 25]: 231.7 µg | FPD [2, 26]: 62.1 µg | GSD [2, 26]: 2.6 | MMAD [2, 26]: 2.2 μm | Mean emitted dose [2, 26]: 221.25 µg | FPD [2, 27]: 43.5 µg | GSD [2, 27]: 2.4 | MMAD [2, 27]: 4.1 μm | Mean emitted dose [2, 27]: 230.5 µg | Fine particle dose [2, 28]: 41.6 µg | MMAD ± GSD [2, 28]: 1.7 ± 2.3 μm | Mean emitted dose [2, 28]: 209.1 µg | Fine particle dose [2, 29]: 41.1 µg | MMAD ± GSD [2, 29]: 2.1 ± 2.7 μm | Mean emitted dose [2, 29]: 218.4 µg | Fine particle dose [2, 30]: 32.1 µg | MMAD ± GSD [2, 30]: 3.3 ± 3.2 μm | Mean emitted dose [2, 30]: 204.2 µg | Fine particle dose [2, 31]: 25.2 µg | MMAD ± GSD [2, 31]: 4.4 ± 3.8 μm | Mean emitted dose [2, 31]: 242.6 µg | Emitted dose [2, 32]: 208.9 µg | FPD [2, 32]: 67.8 µg | GSD [2, 32]: 2.4 | MMAD [2, 32]: 1.7 μm | Emitted dose [2, 33]: 212.7 µg | FPD [2, 33]: 60.6 µg | GSD [2, 33]: 2.3 | MMAD [2, 33]: 2.2 μm | Emitted dose [2, 34]: 212.5 µg | FPD [2, 34]: 58.5 µg | GSD [2, 34]: 2.2 | MMAD [2, 34]: 2.4 μm | Emitted dose [2, 35]: 210.8 µg | FPD [2, 35]: 63.3 µg | GSD [2, 35]: 2.1 | MMAD [2, 35]: 2.9 μm

Reference: patent US7601336B2, “Pharmaceutical aerosol composition” (Chiesi Farmaceutici S.p.A., priority 1997, dated 2009)
